Source: ChEMBL document CHEMBL1240486, “Novel N-methylated 8-oxoisoguanines from Pacific sponges with diverse neuroactivities” (J Med Chem, 2010)
Values belong to the compound of their own block, whether it stands above or below them. Active and inactive are the calls of the source. The rule behind the calls is not given here.

How the values were obtained:
Mus musculus [1] = assay: Neurotoxicity in ddY mouse assessed as changes in behavioral activity at 100 nmol/mouse, icv measured for 60 mins; type: toxicity, organism-based; conditions: in vivo, icv_or_intrathecal, 1 h
[2] = molecular target: Glutamate NMDA receptor (Rattus norvegicus) (UniProt P35439+Q00959+Q00960+Q00961+Q62645+Q8VHN2+Q9R1M7); assay: Displacement of [3H]CGP39653 from NMDA receptor in Sprague-Dawley rat synaptic membranes at 10 uM after 1 hr; type: cell membranes; conditions: Membrane
Rattus norvegicus [3] = organism: Rattus norvegicus; assay: Displacement of [3H]muscimol from GABA binding site of GABAA receptor in rat brain membrane at <10 uM; type: cell membranes
Rattus norvegicus [4] = organism: Rattus norvegicus; assay: Displacement of [3H]AMPA from AMPA receptor in Sprague-Dawley rat synaptic membranes at 10 uM after 1 hr; type: cell membranes; conditions: Membrane
Mus musculus [5] = organism: Mus musculus; assay: Inhibition of GABAA receptor-mediated inhibitory synaptic currents in juvenile mouse CA1 neurons at 30 uM by whole-cell voltage clamp assay in presence of prazosin
[6] = molecular target: GABA A receptor alpha-4/beta-3/gamma-2 (Homo sapiens) (UniProt P18507+P28472+P48169); assay: Antagonist activity at recombinant alpha-4-beta-3-gamma-2S receptor expressed in HEK 293-T/17 cells assessed as GABA-induced current at 30 uM by whole-cell recording relative to control; type: functional, cell-based; parameters: scale not given: the % may be the effect or the level left; conditions: HEK293
Rattus norvegicus [7] = organism: Rattus norvegicus; assay: Inhibition of GABAA receptor-mediated inhibitory synaptic currents in rat hippocampal neurons assessed as sEPSC bursts at 10 uM after 5 mins by whole-cell voltage clamp assay (reference value: 5.6 +/- 1.6 Hz); type: tissue-based; conditions: Hippocampus
Rattus norvegicus [8] = organism: Rattus norvegicus; assay: Inhibition of GABAA receptor-mediated postsynaptic current in rat hippocampal neurons at 10 uM after 5 mins by whole-cell voltage clamp assay; type: tissue-based; conditions: Hippocampus
[9] = molecular target: Neuronal acetylcholine receptor; alpha3/beta2 (Homo sapiens, UniProt P17787+P32297); assay: Binding affinity to nicotinic alpha3beta2 receptor receptor; type: protein-complex assay
[10] = molecular target: T1, Alpha-1D adrenergic receptor (Homo sapiens, UniProt P25100); assay: Binding affinity to adrenergic Alpha-1D receptor
T1 sequence (P25100 whole entry): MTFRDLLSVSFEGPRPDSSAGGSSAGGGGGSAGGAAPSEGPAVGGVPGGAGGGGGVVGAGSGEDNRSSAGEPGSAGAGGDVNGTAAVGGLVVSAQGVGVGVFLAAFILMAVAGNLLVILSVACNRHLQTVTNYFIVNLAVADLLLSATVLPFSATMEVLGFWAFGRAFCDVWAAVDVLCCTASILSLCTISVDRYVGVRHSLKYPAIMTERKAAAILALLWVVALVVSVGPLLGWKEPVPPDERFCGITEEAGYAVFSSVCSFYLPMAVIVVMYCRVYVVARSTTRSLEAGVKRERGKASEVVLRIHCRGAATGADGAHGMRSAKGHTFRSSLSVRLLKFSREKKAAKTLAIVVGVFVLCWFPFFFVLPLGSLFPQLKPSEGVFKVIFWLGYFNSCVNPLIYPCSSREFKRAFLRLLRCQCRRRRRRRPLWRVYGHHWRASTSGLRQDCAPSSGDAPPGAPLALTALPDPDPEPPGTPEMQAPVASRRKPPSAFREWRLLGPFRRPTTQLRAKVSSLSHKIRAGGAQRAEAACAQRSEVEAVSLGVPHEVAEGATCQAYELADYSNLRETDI

Rattus norvegicus [11] = organism: Rattus norvegicus; assay: Inhibition of GABAA receptor-mediated inhibitory synaptic currents in rat hippocampal neurons assessed as sEPSC bursts at 10 uM measured after compound washout by whole-cell voltage clamp assay; type: tissue-based; conditions: Hippocampus
Rattus norvegicus [12] = organism: Rattus norvegicus; assay: Effect on GABAA receptor-mediated spontaneous excitatory postsynaptic current in rat hippocampal neurons assessed as frequency of sEPSC bursts at 10 uM after 5 mins by whole-cell voltage clamp assay (reference value: 0.84 +/- 0.12 Hz); type: tissue-based; conditions: Hippocampus
Rattus norvegicus [13] = organism: Rattus norvegicus; assay: Inhibition of GABAA receptor-mediated postsynaptic current in rat hippocampal neurons at 30 uM after 5 mins by whole-cell voltage clamp assay; type: tissue-based; conditions: Hippocampus
[14] = molecular target: Kappa-type opioid receptor (Homo sapiens, UniProt P41145); assay: Binding affinity to kappa opioid receptor
[15] = molecular target: 5-hydroxytryptamine receptor 1E (Homo sapiens, UniProt P28566); assay: Binding affinity to 5HT1E receptor
[16] = Inhibition of GABAA receptor-mediated miniature inhibitory postsynaptic current in rat hippocampal neurons at 10 uM after 5 mins by whole-cell voltage clamp assay relative to baseline in presence of nonselective adenosine receptor antagonist CGS-15943; type: functional; conditions: Hippocampus
[17] = molecular target: T2, Alpha-1B adrenergic receptor (Homo sapiens, UniProt P35368); assay: Binding affinity to adrenergic Alpha-1B receptor
T2 sequence (P35368 whole entry): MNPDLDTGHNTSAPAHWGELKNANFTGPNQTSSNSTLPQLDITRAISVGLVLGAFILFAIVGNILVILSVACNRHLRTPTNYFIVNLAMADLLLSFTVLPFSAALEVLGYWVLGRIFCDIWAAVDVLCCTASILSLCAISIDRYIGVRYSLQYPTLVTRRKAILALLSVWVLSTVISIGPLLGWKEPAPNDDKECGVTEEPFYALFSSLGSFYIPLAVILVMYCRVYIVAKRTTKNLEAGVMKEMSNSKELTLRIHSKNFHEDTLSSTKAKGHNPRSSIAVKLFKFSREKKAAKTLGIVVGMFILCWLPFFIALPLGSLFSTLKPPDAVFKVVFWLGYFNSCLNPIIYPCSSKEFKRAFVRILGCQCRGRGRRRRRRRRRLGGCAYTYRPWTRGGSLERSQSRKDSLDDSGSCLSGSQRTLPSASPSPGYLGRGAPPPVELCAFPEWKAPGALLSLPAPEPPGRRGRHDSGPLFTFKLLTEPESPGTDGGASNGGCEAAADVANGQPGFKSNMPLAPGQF

Mus musculus [18] = organism: Mus musculus; assay: Inhibition of GABAA receptor-mediated inhibitory synaptic currents in juvenile mouse CA1 neurons at 30 uM by whole-cell voltage clamp assay
Mus musculus [19] = assay: Neurotoxicity in ddY mouse assessed as changes in behavioral activity at 1 nmol/mouse, icv measured for 60 mins; type: toxicity, organism-based; conditions: in vivo, icv_or_intrathecal, 1 h
Rattus norvegicus [20] = organism: Rattus norvegicus; assay: Inhibition of GABAA receptor-mediated miniature inhibitory postsynaptic current in rat hippocampal neurons at 10 uM after 5 mins by whole-cell voltage clamp assay relative to baseline; type: tissue-based; conditions: Hippocampus
Mus musculus [21] = assay: Neurotoxicity in icv dosed ddY mouse assessed as 50% maximal convulsant dose measured for 60 mins; type: toxicity, organism-based; conditions: in vivo, icv_or_intrathecal, 1 h
Rattus norvegicus [22] = organism: Rattus norvegicus; assay: Displacement of [3H]flunitrazepam from benzodiazepine binding site of GABAA receptor in rat brain membrane at <10 uM; type: cell membranes
Rattus norvegicus [23] = organism: Rattus norvegicus; assay: Displacement of [3H]kainate from kainate receptor in Sprague-Dawley rat synaptic membranes at 10 uM after 1 hr; type: cell membranes; conditions: Membrane
[24] = molecular target: Glutamate receptor 4 (Homo sapiens) (UniProt P48058); assay: Antagonist activity at recombinant GluA4 receptor expressed in HEK 293-T/17 cells assessed as glutamate-induced current at 100 uM by whole-cell recording relative to control; type: functional, cell-based; parameters: scale not given: the % may be the effect or the level left; conditions: HEK293
Mus musculus [25] = organism: Mus musculus; assay: Inhibition of excitatory postsynaptic current in juvenile mouse CA1 neurons at 30 uM by whole-cell voltage clamp assay
Mus musculus [26] = assay: Neurotoxicity in ddY mouse assessed as changes in behavioral activity at >4 nmol/mouse, icv measured for 60 mins; type: toxicity, organism-based; conditions: in vivo, icv_or_intrathecal, 1 h
Rattus norvegicus [27] = organism: Rattus norvegicus; assay: Inhibition of GABAA receptor-mediated miniature excitatory postsynaptic current in rat hippocampal neurons assessed as EPSC bursts at 10 uM after 5 mins by whole-cell voltage clamp assay (Rvb 0.69 +/- 0.21 Hz); type: tissue-based; conditions: Hippocampus
Mu-type opioid receptor = Mu-type opioid receptor (Homo sapiens, UniProt P35372); assay: Binding affinity to mu opioid receptor
Mus musculus [28] = organism: Mus musculus; assay: Inhibition of GABAA receptor-mediated inhibitory synaptic currents in juvenile mouse CA1 neurons at 30 uM by whole-cell voltage clamp assay in presence of SCH-50911
[29] = molecular target: T3, Alpha-1A adrenergic receptor (Homo sapiens, UniProt P35348); assay: Binding affinity to adrenergic alpha1A receptor
T3 sequence (P35348 whole entry): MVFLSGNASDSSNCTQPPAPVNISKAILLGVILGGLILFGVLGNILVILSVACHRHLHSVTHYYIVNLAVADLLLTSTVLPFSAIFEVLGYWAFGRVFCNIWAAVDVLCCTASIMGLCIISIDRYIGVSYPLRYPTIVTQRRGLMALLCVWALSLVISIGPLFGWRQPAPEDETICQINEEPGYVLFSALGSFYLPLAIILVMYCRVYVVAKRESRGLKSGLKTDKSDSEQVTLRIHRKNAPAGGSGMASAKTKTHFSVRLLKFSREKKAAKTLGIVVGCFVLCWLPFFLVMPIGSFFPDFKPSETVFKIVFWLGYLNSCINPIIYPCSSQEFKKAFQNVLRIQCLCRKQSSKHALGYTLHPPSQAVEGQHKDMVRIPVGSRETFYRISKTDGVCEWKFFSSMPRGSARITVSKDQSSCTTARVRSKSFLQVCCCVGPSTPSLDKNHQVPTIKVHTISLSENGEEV

Mus musculus [30] = assay: Toxicity in ddY mouse assessed as death at 0.1 umol, icv; type: organism-based; conditions: in vivo, icv_or_intrathecal
Mus musculus [31] = assay: Neurotoxicity in ddY mouse assessed as changes in behavioral activity at >75 nmol/mouse, icv measured for 60 mins; type: toxicity, organism-based; conditions: in vivo, icv_or_intrathecal, 1 h
Mus musculus [32] = assay: Neurotoxicity in ddY mouse assessed as changes in behavioral activity at 25 to 50 nmol/mouse, icv measured for 60 mins; type: toxicity, organism-based; conditions: in vivo, icv_or_intrathecal, 1 h
Mus musculus [33] = assay: Neurotoxicity in ddY mouse assessed as induction of occasional tonic extension of forelimbs and weakness of lower bodies at 0.1 umol, icv measured for 60 mins; conditions: in vivo, icv_or_intrathecal, 1 h
Mus musculus [34] = assay: Neurotoxicity in ddY mouse assessed as changes in behavioral activity at 30 to 110 nmol/mouse, icv measured for 60 mins; type: toxicity, organism-based; conditions: in vivo, icv_or_intrathecal, 1 h
Mus musculus [35] = assay: Neurotoxicity in ddY mouse assessed as changes in behavioral activity at 14 nmol/mouse, icv measured for 60 mins; type: toxicity, organism-based; conditions: in vivo, icv_or_intrathecal, 1 h
Mus musculus [36] = assay: Neurotoxicity in ddY mouse assessed as induction of convulsions at 0.05 to 0.1 umol, icv measured for 60 mins; type: toxicity, organism-based; conditions: in vivo, icv_or_intrathecal, 1 h

Chain of Kappa-type opioid receptor (P41145 whole entry): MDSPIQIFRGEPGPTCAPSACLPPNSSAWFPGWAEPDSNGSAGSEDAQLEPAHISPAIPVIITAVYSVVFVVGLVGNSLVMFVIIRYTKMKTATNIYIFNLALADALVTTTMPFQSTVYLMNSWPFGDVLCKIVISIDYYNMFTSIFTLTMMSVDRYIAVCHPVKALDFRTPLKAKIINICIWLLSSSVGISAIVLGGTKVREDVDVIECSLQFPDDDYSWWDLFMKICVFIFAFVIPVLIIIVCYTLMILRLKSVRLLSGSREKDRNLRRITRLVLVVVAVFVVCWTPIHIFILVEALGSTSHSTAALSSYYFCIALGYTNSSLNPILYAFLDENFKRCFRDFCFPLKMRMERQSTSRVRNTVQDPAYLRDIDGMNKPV
Chain of Neuronal acetylcholine receptor; alpha3/beta2 (P17787 whole entry): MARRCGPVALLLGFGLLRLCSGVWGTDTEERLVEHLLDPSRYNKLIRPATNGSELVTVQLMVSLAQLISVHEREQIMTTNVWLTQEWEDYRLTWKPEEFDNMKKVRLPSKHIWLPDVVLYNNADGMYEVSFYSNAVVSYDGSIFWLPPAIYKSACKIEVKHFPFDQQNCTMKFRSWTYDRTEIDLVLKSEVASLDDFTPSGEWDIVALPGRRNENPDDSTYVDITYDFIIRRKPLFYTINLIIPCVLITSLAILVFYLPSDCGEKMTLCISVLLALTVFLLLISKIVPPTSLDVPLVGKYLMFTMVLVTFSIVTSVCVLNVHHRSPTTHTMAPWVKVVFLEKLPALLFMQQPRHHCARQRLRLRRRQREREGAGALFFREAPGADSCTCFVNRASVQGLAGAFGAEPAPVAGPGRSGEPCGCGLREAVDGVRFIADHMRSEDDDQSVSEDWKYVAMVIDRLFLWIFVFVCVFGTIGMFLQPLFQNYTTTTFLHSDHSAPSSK
Chain of Neuronal acetylcholine receptor; alpha3/beta2 (P32297 whole entry): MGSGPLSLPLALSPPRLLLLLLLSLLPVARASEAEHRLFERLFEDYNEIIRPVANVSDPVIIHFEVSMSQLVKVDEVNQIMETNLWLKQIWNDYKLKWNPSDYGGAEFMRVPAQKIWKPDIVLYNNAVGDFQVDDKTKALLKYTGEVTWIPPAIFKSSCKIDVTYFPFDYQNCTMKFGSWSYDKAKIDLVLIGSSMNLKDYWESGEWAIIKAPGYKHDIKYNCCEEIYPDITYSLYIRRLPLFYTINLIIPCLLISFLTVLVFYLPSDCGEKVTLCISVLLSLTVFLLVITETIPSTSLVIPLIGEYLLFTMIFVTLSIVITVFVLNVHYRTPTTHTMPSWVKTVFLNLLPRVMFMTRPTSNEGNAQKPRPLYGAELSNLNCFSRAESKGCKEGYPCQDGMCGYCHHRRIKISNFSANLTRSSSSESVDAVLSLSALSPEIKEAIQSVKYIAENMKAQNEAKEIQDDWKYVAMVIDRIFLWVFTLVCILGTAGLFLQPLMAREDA
Chain of 5-hydroxytryptamine receptor 1E (P28566 whole entry): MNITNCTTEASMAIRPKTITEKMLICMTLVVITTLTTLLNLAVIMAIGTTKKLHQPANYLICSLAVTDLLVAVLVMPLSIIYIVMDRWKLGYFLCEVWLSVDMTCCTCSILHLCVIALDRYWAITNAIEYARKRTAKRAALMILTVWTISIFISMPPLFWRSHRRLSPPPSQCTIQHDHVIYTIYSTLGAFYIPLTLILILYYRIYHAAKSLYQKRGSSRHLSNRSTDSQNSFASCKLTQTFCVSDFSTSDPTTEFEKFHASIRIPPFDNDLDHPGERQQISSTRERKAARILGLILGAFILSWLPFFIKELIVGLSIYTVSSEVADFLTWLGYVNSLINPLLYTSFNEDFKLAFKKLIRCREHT
Chain of Glutamate receptor 4 (Homo sapiens) (P48058 whole entry): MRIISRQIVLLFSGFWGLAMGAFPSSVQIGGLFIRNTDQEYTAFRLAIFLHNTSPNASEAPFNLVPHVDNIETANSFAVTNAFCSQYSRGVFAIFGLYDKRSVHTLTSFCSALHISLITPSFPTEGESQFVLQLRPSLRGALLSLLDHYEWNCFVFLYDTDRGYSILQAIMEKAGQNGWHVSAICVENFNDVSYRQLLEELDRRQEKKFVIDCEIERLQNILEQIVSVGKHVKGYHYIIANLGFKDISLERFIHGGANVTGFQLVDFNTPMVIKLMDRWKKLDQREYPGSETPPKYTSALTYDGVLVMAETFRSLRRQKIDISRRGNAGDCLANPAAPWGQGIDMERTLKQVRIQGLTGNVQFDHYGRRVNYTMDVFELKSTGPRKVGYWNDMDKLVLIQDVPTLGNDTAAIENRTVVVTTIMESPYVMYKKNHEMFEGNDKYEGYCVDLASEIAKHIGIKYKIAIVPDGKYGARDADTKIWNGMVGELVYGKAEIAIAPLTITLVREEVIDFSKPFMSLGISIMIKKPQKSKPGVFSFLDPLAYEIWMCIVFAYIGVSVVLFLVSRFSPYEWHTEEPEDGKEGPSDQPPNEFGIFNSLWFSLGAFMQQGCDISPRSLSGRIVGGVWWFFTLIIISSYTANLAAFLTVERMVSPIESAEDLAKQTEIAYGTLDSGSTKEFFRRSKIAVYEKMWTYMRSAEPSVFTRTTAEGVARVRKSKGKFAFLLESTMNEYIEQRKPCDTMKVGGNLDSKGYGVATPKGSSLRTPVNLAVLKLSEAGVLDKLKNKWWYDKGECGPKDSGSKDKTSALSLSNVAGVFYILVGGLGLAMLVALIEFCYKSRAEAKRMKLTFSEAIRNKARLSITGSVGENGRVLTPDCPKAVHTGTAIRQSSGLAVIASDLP
Chain of Mu-type opioid receptor (P35372 whole entry): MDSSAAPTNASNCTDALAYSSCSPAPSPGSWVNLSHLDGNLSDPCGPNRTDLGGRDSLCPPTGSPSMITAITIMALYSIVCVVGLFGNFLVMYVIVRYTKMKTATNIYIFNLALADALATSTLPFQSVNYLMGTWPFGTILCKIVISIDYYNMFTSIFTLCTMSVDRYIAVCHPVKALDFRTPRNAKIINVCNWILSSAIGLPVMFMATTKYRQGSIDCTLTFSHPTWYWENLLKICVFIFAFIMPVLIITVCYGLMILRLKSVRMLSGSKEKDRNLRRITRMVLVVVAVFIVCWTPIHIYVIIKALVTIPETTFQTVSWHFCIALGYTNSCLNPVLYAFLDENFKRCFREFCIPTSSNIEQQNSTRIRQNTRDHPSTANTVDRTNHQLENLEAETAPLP

Compound: Cl.Cn1c(=O)[nH]c(=N)c2[nH]c(=O)n(C)c21
Activity (Mus musculus [1]): Toxic

inhibition [2]: inactive
inhibition (Rattus norvegicus [3]): inactive
inhibition (Rattus norvegicus [4]): inactive
inhibition (Mus musculus [5]): Active
Activity [6]: 93%
Ki [9]: 4200 nM
Ki [10]: 497 nM
Ki [14]: 1800 nM
Ki [15]: 2900 nM
Ki [17]: 758 nM
inhibition (Mus musculus [18]): 71%
inhibition (Rattus norvegicus [22]): inactive
inhibition (Rattus norvegicus [23]): inactive
Activity [24]: 100%
inhibition (Mus musculus [25]): 22%
Ki (Mu-type opioid receptor): 8900 nM
inhibition (Mus musculus [28]): Active
Ki [29]: 885 nM
Compound: Cl.Cn1c(=O)[nH]c2c([nH]c(=O)n2C)c1=N
Activity (Rattus norvegicus [7]): 3.6 Hz
inhibition (Rattus norvegicus [8]): Active
Activity (Rattus norvegicus [11]): 6 Hz
Activity (Rattus norvegicus [12]): 0.9 Hz
inhibition (Rattus norvegicus [13]): Active
inhibition at 10 µM [16]: 29.6%
Activity (Mus musculus [19]): Toxic
inhibition (Rattus norvegicus [20]): 32%
Activity (Mus musculus [21]): 2.4 nmol
Activity (Mus musculus [26]): Toxic
Activity (Rattus norvegicus [27]): 0.95 Hz

Compound: Cl.Cn1c(=N)c2[nH]c(=O)[nH]c2n(C)c1=O
Activity (Mus musculus [30]): Toxic
Activity (Mus musculus [31]): Toxic
Activity (Mus musculus [32]): Toxic
Activity (Mus musculus [21]): 54 nmol
Activity (Mus musculus [33]): Toxic

Compound: Cl.Cn1c(=O)[nH]c2c(=N)[nH]c(=O)[nH]c21
Activity (Mus musculus [34]): Toxic
Activity (Mus musculus [35]): Toxic
Activity (Mus musculus [21]): 18 nmol
Activity (Mus musculus [36]): Toxic
